Source: paper PMC9402746, “A phase I dose escalation, dose expansion and pharmacokinetic trial of gemcitabine and alisertib in advanced solid tumors and pancreatic cancer” (Cancer Chemotherapy and Pharmacology, 2022)
Entries after “also recorded” stand apart in the source; their conditions may differ. Read-outs that look alike come from different tables or passages of the source.

Legend:
[1] = human, in vivo, 28 days
Protocol: This was an open-label phase I clinical trial with two-phase design including a dose escalation and an expansion phase in pancreatic cancer. In the dose escalation phase, a standard 3 + 3 design was used to determine the maximum tolerated dose (MTD) of alisertib in combination with gemcitabine. Alisertib was administered orally twice daily (BID) on days 1–3, 8–10, and 15–17 of a 28-day treatment cycle. Gemcitabine was given concurrently at standard dosing of 1000 mg/m^2 intravenously on days 1, 8, 15. A starting dose of alisertib 20 mg BID was used in the dose escalation phase and was escalated in cohorts of at least three evaluable subjects at 30 mg BID, 40 mg BID, and 50 mg BID until MTD or the highest feasible dose level (Table S1). The dose of 50 mg BID was the highest dose allowable and was previously reported as the recommended phase II dose (RP2D) for alisertib monotherapy. In the expansion phase, subjects received the MTD or RP2D following the same cycle schedule. Dose adjustments were allowed for both drugs (Table S1B, 1C).
The MTD was defined as the highest dose tested in which fewer than 33% of subjects experienced DLT attributable to the study drugs, when at least six subjects were treated at that dose and evaluable for toxicity.
DLT was defined as any related (possibly, probably, or definitely) grade 3 non-hematologic toxicity or any attributable grade 4 toxicity. […]

[2] = Plasma pharmacokinetics of alisertib, non-compartmental analysis; type: in vivo, human
Protocol: (§1) Pharmacokinetic sampling was performed on the expanded cohort of subjects with pancreatic cancer treated at the RP2D. Alisertib was not administered on cycle 1, day 1 to enable gemcitabine pharmacokinetic sampling on day 1 and day 2 of cycle 1 in the absence of co-administered alisertib. This served as the reference baseline for comparison to gemcitabine pharmacokinetics when co-administered with alisertib on day 8 of cycle 1. On cycle 1 day 8, alisertib was administered within 10 min of the start of the gemcitabine infusion, and the second (evening) dose of alisertib was not administered to allow for gemcitabine measurement at the 24 h timepoint. Both the parent drug (gemcitabine, dFdC) and the metabolite (dFdU) were measured to evaluate changes in gemcitabine metabolism related to alisertib administration. Pharmacokinetic blood samples were collected with dipotassium ethylenediaminetetraacetic acid (K2EDTA) as the anticoagulant before treatment, immediately after gemcitabine infusion, and at additional pre-specified post-infusion timepoints. Actual timepoints were recorded for PK parameter evaluation. Measurement of plasma gemcitabine, dFdU, and alisertib concentrations are described in the Supplementary Methods.
(§2) Gemcitabine, dFdU and alisertib PK parameters were estimated using non-compartmental analysis (NCA) with Certara Phoenix WinNonlin 8.0 (Princeton, NJ), including mean peak concentration (Cmax) and exposure (Area Under the Curve, AUC). The AUC parameters were estimated using the linear-up-log-down trapezoidal rule. Tests of significance between day 1 and day 8 PK parameters were performed using paired t-tests with GraphPad Prism 6.07 (San Diego, CA).

[3] = Treatment exposures, delays and dose reductions; type: in vivo, human
Source text: To proceed to the next cycle, lab parameters included ANC ≥ 1500/mm^3 and platelet count ≥ 100,000/mm^3, and all other toxicity considered by the investigator to be related to therapy with alisertib or gemcitabine must have resolved to grade ≤ 1 or to the subject’s baseline values. […] Thereafter, the subject was re-evaluated to determine continuation eligibility. Dose modification (Table S1B, 1C) was required for cycle initiations delayed > 1 week due to incomplete recovery from treatment-related toxicity.
Median number of cycles per subject was 3 (range 1–13), and median duration of treatment was 2.84 months (range 0.36–13.22). Similar median duration of treatment and cycles delivered were observed between the dose levels (Table S2). Proportion of planned dose received, defined as total dose received divided by total planned dose according to the dose level for alisertib and 1000 mg/m^2 for gemcitabine, was calculated according to each subject (Table S3) and each cycle (Fig. 1).

[4] = test system: Aurora Kinase A (AKA) compared to Aurora Kinase B; set-up: method as in PMID 20382844, PMID 21556291; settings: cited from earlier work
selected CYPs = test system: selected CYPs; set-up: method as in PMID 31911485; settings: in vitro; cited from earlier work
[5] = set-up: method as in PMID 22753585, PMID 24879333, PMID 25302940; settings: twice daily for 7 days in a 21-day cycle; cited from earlier work
[6] = test system: multiple solid organ malignancies; set-up: method as in PMID 25728526; settings: cited from earlier work
breast/ovarian cancer = test system: breast/ovarian cancer; set-up: method as in PMID 30347019; settings: cited from earlier work
[7] = set-up: method as in PMID 28852909; settings: published literature; cited from earlier work
[8] = Plasma pharmacokinetics of gemcitabine and dFdU without and with alisertib, non-compartmental analysis; type: in vivo, human; settings: for Percentage extrapolated AUC0->inf, Mean / Cmax / AUC(0-inf) / AUC(0-t): plasma, gemcitabine 1000 mg/m^2 IV; for Cmax / AUC(0-inf) / AUC(0-t): human, iv; for AUC(0-inf): read-out: AUC0->inf, Mean (converted); for AUC(0-t): read-out: AUC0->last, Mean (converted); for Effect of co-administered alisertib on NCA PK parameters (day 1 vs day 8): paired t test, P > 0.05
Protocol: as §1, §2

small cell lung cancer = test system: small cell lung cancer; set-up: method as in PMID 31655296; settings: cited from earlier work
[9] = monotherapy trial of solid tumors
[10] = 1000 mg/m2, Day 1 (without alisertib), N 5
[11] = 1000 mg/m2, Day 8 (with alisertib), N 4

For `COc1cc(Nc2ncc3c(n2)-c2ccc(Cl)cc2C(c2c(F)cccc2OC)=NC3)ccc1C(=O)O` [alisertib], the “Recommended phase 2 dose of alisertib combined with gemcitabine” value [1] was 50 mg, the Cmax ([2]; Subject 22, day 8, unexpectedly high) was 1750 ng/mL and the “Percentage extrapolated AUC0->inf, Mean” value ([2]; alisertib oral at RP2D with gemcitabine, cycle 1 day 8, plasma, N 4) was 25.08%. For the same molecule, the Tmax ([2]; human, plasma, oral, Subject 24, day 8, unexpectedly long, read-out: Tmax) was 24 h, the Tmax ([2]; human, plasma, oral, other subjects here, day 8, read-out: Tmax) was 1.5 to 4.5 h and the Cmax ([2]; human, plasma, oral, observed here with gemcitabine, similar to previously reported, read-out: Cmax) was 700 to 900 ng/mL. It also gave a Tmax ([2]; human, plasma, po, alisertib oral at RP2D with gemcitabine, cycle 1 day 8, plasma, N 5, read-out: Tmax, Mean (converted)) of 7.52 h, an AUC(0-inf) ([2]; human, alisertib oral at RP2D with gemcitabine, cycle 1 day 8, plasma, N 4, read-out: AUC0->inf, Mean (converted)) of 16300 ng·h/mL and an AUC(0-t) ([2]; human, alisertib oral at RP2D with gemcitabine, cycle 1 day 8, plasma, N 5, read-out: AUC0->last, Mean (converted)) of 11800 ng·h/mL. For the same molecule, the Cmax ([2]; human, alisertib oral at RP2D with gemcitabine, cycle 1 day 8, plasma, N 5, read-out: Cmax, Mean) was 973 ng/mL, the “Subjects who underwent dose delays/omissions” value ([3]; of 26 subjects) was 18 subjects and the “Subjects with dose reductions” value ([3]; of 26 subjects) was 9 subjects. For the same molecule, the Cycles modified ([3]; of 94 cycles delivered) was 27 cycles, the “Selectivity for AKA compared to Aurora Kinase B” value [4] was > 200 fold and the “Inhibition of selected CYPs” value (selected CYPs) was “not shown appreciable inhibition”. For the same molecule, the “RP2D of alisertib monotherapy” value [5] was 50 mg, the “Rate of SAEs” value [6, 9] was 43% and the “Treatment-related adverse events: anemia” value [6, 9] was 10%. For the same molecule, the “Treatment-related adverse events: leukopenia” value [6, 9] was 21%, the “Treatment-related adverse events: neutropenia” value [6, 9] was 43% and the Response rates ([6]; monotherapy, depending on the primary tumor subtype) was 5–20%. For the same molecule, the “RP2D of alisertib in combination with paclitaxel” value (breast/ovarian cancer; twice daily, schedule similar to the one reported here) was 40 mg and the Tmax [7] was 3 to 4 h.
In the case of `O=c1ccn([C@@H]2O[C@H](CO)[C@@H](O)C2(F)F)c(=O)[nH]1` [dFdU, 2′, 2′-difluorodeoxyuridine], the “Percentage extrapolated AUC0->inf, Mean” value ([8]; Day 1 (without alisertib), N 5) is reported as 18.13%, the “Percentage extrapolated AUC0->inf, Mean” value ([8]; Day 8 (with alisertib), N 4) is reported as 15.73% and the Cmax [8, 10] is reported as 67900 ng/mL. For the same molecule, the AUC(0-inf) [8, 10] was 412000 ng·h/mL, the AUC(0-t) [8, 10] was 363000 ng·h/mL and the Cmax [8, 11] was 73800 ng/mL. For the same molecule, the AUC(0-inf) [8, 11] was 363000 ng·h/mL, the AUC(0-t) [8, 11] was 343000 ng·h/mL and the “Effect of co-administered alisertib on NCA PK parameters (day 1 vs day 8)” value [8] was “No significant changes; also recorded: not significantly affected”.
For `Nc1ccn([C@@H]2O[C@H](CO)[C@@H](O)C2(F)F)c(=O)n1` [gemcitabine], the “Percentage extrapolated AUC0->inf, Mean” value ([8]; Day 1 (without alisertib), N 5) was 0.14%, the “Percentage extrapolated AUC0->inf, Mean” value ([8]; Day 8 (with alisertib), N 4) was 0.32% and the Cmax [8, 10] was 7420 ng/mL. The AUC(0-inf) [8, 10] was 3600 ng·h/mL, the AUC(0-t) [8, 10] was 3600 ng·h/mL and the Cmax [8, 11] was 6240 ng/mL. The AUC(0-inf) [8, 11] was 3240 ng·h/mL, the AUC(0-t) [8, 11] was 3230 ng·h/mL and the “Effect of co-administered alisertib on NCA PK parameters (day 1 vs day 8)” value [8] was “No significant changes; also recorded: not significantly affected”. For the same molecule, the “Subjects who required dose delays” value ([3]; of 26 subjects) was 16 subjects, the “Subjects who required dose omission” value ([3]; of 26 subjects) was 14 subjects and the “Subjects with dose reductions” value ([3]; of 26 subjects) was 5 subjects. For the same molecule, the “Cycles given at a reduced dose” value ([3]; of 94 cycles delivered) was 10 cycles, the “Cycles with delayed doses” value ([3]; of 94 cycles delivered) was 43 cycles and the “Cycles with dose omissions” value ([3]; of 94 cycles delivered) was 17 cycles.
For `CC(=O)O[C@H]1C(=O)[C@@]2(C)[C@H]([C@H](OC(=O)c3ccccc3)[C@]3(O)C[C@H](OC(=O)[C@H](O)[C@@H](NC(=O)c4ccccc4)c4ccccc4)C(C)=C1C3(C)C)[C@]1(OC(C)=O)CO[C@@H]1C[C@@H]2O` [paclitaxel], the mPFS (small cell lung cancer; 89 subjects in each arm) is listed as 2.17 months, the Response rate (small cell lung cancer) is listed as 18% and the mPFS (breast/ovarian cancer; breast/ovarian subjects) is listed as 4.7 months. The Response rate (breast/ovarian cancer; breast/ovarian subjects, p = 0.38) was 52%.
